Measured values published in US20250152592A1, “PHARMACEUTICAL COMPOSITION COMPRISING ALLOPURINOL, FEBUXOSTAT OR PHARMACEUTICALLY ACCEPTABLE SALT THEREOF FOR PREVENTION OR TREATMENT OF CHRONIC KIDNEY DISEASE IN SUBJECT HAVING HIGH SERUM URIC ACID CONCENTRATION” (Indream Healthcare Inc., priority 2022, published 2025).

System: patients with gout and a history of major cardiovascular diseases
Test: eGFR over time by average serum uric acid concentration, analysis of clinical trial data
Assay type: in vivo, human
Conditions: for eGFR Mean (95% CI): febuxostat group
Description: In order to evaluate non-inferiority of febuxostat to allopurinol related to cardiovascular risk, a clinical trial was designed and proceeded.
A multicenter, randomized, double-blind non-inferiority trial was performed. The details of the clinical trial design have been published previously. An independent data and safety monitoring committee with access to unblinded data monitored the clinical trial. The statistical analysis for the data and the safety monitoring committee was performed by an independent statistical group (WebbWrites).
The patients were regarded as having a history of major cardiovascular diseases, if they had myocardial infarction, hospitalization for unstable angina, stroke, hospitalization for transient ischemic attack, peripheral vascular disease, or diabetes mellitus symptoms. All participants provided a prior informed consent form.
The patients were randomly assigned so that they received febuxostat or allopurinol administered once a day in a double-blind manner. The randomization was stratified according to the estimated creatinine clearance at baseline (patient group having an estimated creatinine clearance ≥60 ml per minute vs patient group having an estimated creatinine clearance ≥30 and <60 ml per minute).
The dose of allopurinol was modified according to a kidney function. The patients with the estimated creatinine clearance 60 ml or more per minute i) initially received allopurinol at a dose of 300 mg once a day, and the dose was increased in 100 mg increments monthly until the patient had the serum uric acid concentration of less than 6.0 mg per deciliter or the dosage of allopurinol was 600 mg once a day. The patient having the estimated creatinine clearance of 30 ml or more and less than 60 ml per minute initially received 200 mg of allopurinol, and then the dose was increased in 100 mg increments until the patient either had the serum uric acid concentration of less than 6.0 mg per deciliter or was receiving the allopurinol dose of 400 mg once daily.
The dose of febuxostat was not modified according to the kidney function. The patients who were randomly assigned to receive febuxostat initially received 40 mg once a daily, and continued to receive the same dosage if the serum uric acid concentration was less than 6.0 mg per deciliter after 2 weeks of the treatment. If the serum uric acid concentration was higher than 6.0 mg per deciliter at 2nd week visit, the dose of febuxostat was increased to 80 mg once daily for the remainder of the trial.
During the period, the administration of a double-blind and double-dummy trial medications was guided by an interactive voice-response system which was a procedure to prevent unblinding for the patients whose dose was not adjusted. After completing dose adjustment, the urate level was concealed from the investigators, and the treatment was managed throughout the trial using the interactive voice-response system.
Outpatient visits were conducted according to the following schedule: during screening and randomization, and at 2, 4, 6, 8, 10, 12, and 24 weeks after the randomization, and every 6 months during the subsequent years of the trial. The patients with reduced kidney function or, the patients aged 65 years or older at randomization were visited at 9 and 15 months for monitoring the serum chemical profile. If the patient agreed to be monitored, but would not return for study visit, telephone contact was made, but such method was not preferred or recommended.
In order to confirm the effect of allopurinol and febuxostat on the kidney disease, the data obtained in the clinical trial described above was analyzed.

Compound: Cc1nc(-c2ccc(OCC(C)C)c(C#N)c2)sc1C(=O)O [febuxostat]
- prevention or treatment of chronic kidney disease when serum uric acid maintained below 6 (blood glucose ≥126 mg/dl, DBP ≤80 mmHg, SBP ≤130 mmHg, serum uric acid ≥8 mg/dl, or gout history 10 years or more): effectively prevented or treated
- eGFR Mean (95% CI) (Baseline UA≥ 8, Average UA <6, Baseline): 61.87 (60.73-63.01) ml/min/1.73 m^2
- eGFR Mean (95% CI) (Baseline UA≥ 8, Average UA <6, Month 3): 62.09 (60.91-63.28) ml/min/1.73 m^2
- eGFR Mean (95% CI) (Baseline UA≥ 8, Average UA <6, Month 18): 62.99 (61.62-64.36) ml/min/1.73 m^2
- eGFR Mean (95% CI) (Baseline UA≥ 8, Average UA <6, Month 24): 63.15 (61.69-64.61) ml/min/1.73 m^2
- eGFR Mean (95% CI) (Baseline UA≥ 8, Average UA <6, Month 30): 63.85 (62.28-65.43) ml/min/1.73 m^2
- eGFR Mean (95% CI) (Baseline UA≥ 8, Average UA <6, Month 36): 64.04 (62.38-65.70) ml/min/1.73 m^2
- eGFR Mean (95% CI) (Baseline UA≥ 8, Average UA <6, Month 42): 63.75 (61.92-65.59) ml/min/1.73 m^2
- eGFR Mean (95% CI) (Baseline UA≥ 8, Average UA <6, Month 48): 65.32 (63.28-67.37) ml/min/1.73 m^2
- eGFR Mean (95% CI) (Baseline UA≥ 8, Average UA <6, Month 54): 66.35 (64.11-68.58) ml/min/1.73 m^2
- eGFR Mean (95% CI) (Baseline UA≥ 8, Average UA <6, Month 60): 66.48 (63.94-69.02) ml/min/1.73 m^2
- eGFR Mean (95% CI) (Baseline UA≥ 8, Average UA <6, Week 2): 62.03 (60.84-63.22) ml/min/1.73 m^2
- eGFR Mean (95% CI) (Baseline UA≥ 8, Average UA ≥6, Baseline): 63.17 (61.34-65.00) ml/min/1.73 m^2
- eGFR Mean (95% CI) (Baseline UA≥ 8, Average UA ≥6, Month 3): 63.02 (61.13-64.91) ml/min/1.73 m^2
- eGFR Mean (95% CI) (Baseline UA≥ 8, Average UA ≥6, Month 18): 61.52 (59.25-63.79) ml/min/1.73 m^2
- eGFR Mean (95% CI) (Baseline UA≥ 8, Average UA ≥6, Month 24): 62.08 (59.58-64.57) ml/min/1.73 m^2
- eGFR Mean (95% CI) (Baseline UA≥ 8, Average UA ≥6, Month 30): 60.68 (57.82-63.54) ml/min/1.73 m^2
- eGFR Mean (95% CI) (Baseline UA≥ 8, Average UA ≥6, Month 36): 61.32 (58.15-64.49) ml/min/1.73 m^2
- eGFR Mean (95% CI) (Baseline UA≥ 8, Average UA ≥6, Month 42): 60.90 (57.46-64.34) ml/min/1.73 m^2
- eGFR Mean (95% CI) (Baseline UA≥ 8, Average UA ≥6, Month 48): 61.54 (57.81-65.27) ml/min/1.73 m^2
- eGFR Mean (95% CI) (Baseline UA≥ 8, Average UA ≥6, Month 54): 62.30 (58.01-66.59) ml/min/1.73 m^2
- eGFR Mean (95% CI) (Baseline UA≥ 8, Average UA ≥6, Month 60): 61.06 (55.87-66.24) ml/min/1.73 m^2
- eGFR Mean (95% CI) (Baseline UA≥ 8, Average UA ≥6, Week 2): 63.18 (61.22-65.15) ml/min/1.73 m^2
- eGFR Mean (95% CI) (Baseline blood glucose level ≥126, Average UA <6, Baseline): 64.23 (62.54-65.93) ml/min/1.73 m^2
- eGFR Mean (95% CI) (Baseline blood glucose level ≥126, Average UA <6, Month 3): 63.54 (61.75-65.32) ml/min/1.73 m^2
- eGFR Mean (95% CI) (Baseline blood glucose level ≥126, Average UA <6, Month 6): 63.33 (61.52-65.14) ml/min/1.73 m^2
- eGFR Mean (95% CI) (Baseline blood glucose level ≥126, Average UA <6, Month 12): 64.32 (62.49-66.15) ml/min/1.73 m^2
- eGFR Mean (95% CI) (Baseline blood glucose level ≥126, Average UA <6, Month 18): 63.84 (61.79-65.89) ml/min/1.73 m^2
- eGFR Mean (95% CI) (Baseline blood glucose level ≥126, Average UA <6, Month 24): 64.49 (62.28-66.69) ml/min/1.73 m^2
- eGFR Mean (95% CI) (Baseline blood glucose level ≥126, Average UA <6, Month 30): 63.64 (61.38-65.91) ml/min/1.73 m^2
- eGFR Mean (95% CI) (Baseline blood glucose level ≥126, Average UA <6, Month 36): 64.30 (61.77-66.83) ml/min/1.73 m^2
- eGFR Mean (95% CI) (Baseline blood glucose level ≥126, Average UA <6, Month 42): 63.94 (61.12-66.76) ml/min/1.73 m^2
- eGFR Mean (95% CI) (Baseline blood glucose level ≥126, Average UA <6, Month 48): 65.35 (62.27-68.43) ml/min/1.73 m^2
- eGFR Mean (95% CI) (Baseline blood glucose level ≥126, Average UA <6, Month 54): 66.66 (63.21-70.10) ml/min/1.73 m^2
- eGFR Mean (95% CI) (Baseline blood glucose level ≥126, Average UA <6, Month 60): 67.78 (63.68-71.89) ml/min/1.73 m^2
- eGFR Mean (95% CI) (Baseline blood glucose level ≥126, Average UA <6, Week 2): 64.06 (62.29-65.83) ml/min/1.73 m^2
- eGFR Mean (95% CI) (Baseline blood glucose level ≥126, Average UA ≥6, Baseline): 65.94 (62.79-69.10) ml/min/1.73 m^2
- eGFR Mean (95% CI) (Baseline blood glucose level ≥126, Average UA ≥6, Month 3): 64.51 (61.21-67.81) ml/min/1.73 m^2
- eGFR Mean (95% CI) (Baseline blood glucose level ≥126, Average UA ≥6, Month 6): 64.04 (60.85-67.23) ml/min/1.73 m^2
- eGFR Mean (95% CI) (Baseline blood glucose level ≥126, Average UA ≥6, Month 12): 62.81 (59.35-66.28) ml/min/1.73 m^2
- eGFR Mean (95% CI) (Baseline blood glucose level ≥126, Average UA ≥6, Month 18): 62.28 (58.22-66.35) ml/min/1.73 m^2
- eGFR Mean (95% CI) (Baseline blood glucose level ≥126, Average UA ≥6, Month 24): 62.44 (58.21-66.68) ml/min/1.73 m^2
- eGFR Mean (95% CI) (Baseline blood glucose level ≥126, Average UA ≥6, Month 30): 61.66 (57.17-66.16) ml/min/1.73 m^2
- eGFR Mean (95% CI) (Baseline blood glucose level ≥126, Average UA ≥6, Month 36): 62.64 (57.30-67.99) ml/min/1.73 m^2
- eGFR Mean (95% CI) (Baseline blood glucose level ≥126, Average UA ≥6, Month 42): 62.33 (56.68-67.99) ml/min/1.73 m^2
- eGFR Mean (95% CI) (Baseline blood glucose level ≥126, Average UA ≥6, Month 48): 60.51 (54.59-66.44) ml/min/1.73 m^2
- eGFR Mean (95% CI) (Baseline blood glucose level ≥126, Average UA ≥6, Month 54): 60.70 (53.73-67.67) ml/min/1.73 m^2
- eGFR Mean (95% CI) (Baseline blood glucose level ≥126, Average UA ≥6, Month 60): 60.00 (50.87-69.14) ml/min/1.73 m^2
- eGFR Mean (95% CI) (Baseline blood glucose level ≥126, Average UA ≥6, Week 2): 64.56 (61.25-67.87) ml/min/1.73 m^2
- eGFR Mean (95% CI) (DBP <80, Average UA <6, Baseline): 62.24 (61.02-63.45) ml/min/1.73 m^2
